Experimental data reported in patent publication US11008323B2, “Substituted tricyclic 1,4-benzodiazepinone derivatives as allosteric modulators of group II metabotropic glutamate receptors” (Domain Therapeutics, priority 2015, dated 2021).
Where a name gives a salt, the structure may show the parent alone.

test system: not given; test: not given; settings: not given

SMILES | melting point [°C]
CN1C(=O)c2cccn2-c2cc(-c3ccncc3)ccc2C12CC2 (as salt: hydrochloride) [Example 22, 5-Methyl-9-(pyridin-4-yl)-spiro[benzo[f]pyrrolo[1,2-a][1,4]diazepine-6,1′-cyclopropan]-4(5H)-one] | > 250
CN1C(=O)c2cccn2-c2cc(-c3cccnc3)ccc2C12CC2 (as salt: hydrochloride) [Example 23, 5-Methyl-9-(pyridin-3-yl)-spiro[benzo[f]pyrrolo[1,2-a][1,4]diazepine-6,1′-cyclopropan]-4(5H)-one] | > 250
CCc1ncccc1-c1ccc2c(c1)-n1cccc1C(=O)N(C)C21CC1 (as salt: hydrochloride) [Example 24, 5-Methyl-9-(2-ethylpyridin-3-yl)-spiro[benzo[f]pyrrolo[1,2-a][1,4]diazepine-6,1′-cyclopropan]-4(5H)-one] | 136 to 143
Cc1ccc(-c2ccc3c(c2)-n2cccc2C(=O)N(C)C32CC2)cn1 (as salt: hydrochloride) [Example 25, 5-Methyl-9-(6-methylpyridin-3-yl)-spiro[benzo[f]pyrrolo[1,2-a][1,4]diazepine-6,1′-cyclopropan]-4(5H)-one] | 205 to 215
Cc1cc(-c2ccc3c(c2)-n2cccc2C(=O)N(C)C32CC2)ccn1 (as salt: hydrochloride) [Example 26, 5-Methyl-9-(2-methylpyridin-4-yl)-spiro[benzo[f]pyrrolo[1,2-a][1,4]diazepine-6,1′-cyclopropan]-4(5H)-one] | 183 to 193
Cc1cnccc1-c1ccc2c(c1)-n1cccc1C(=O)N(C)C21CC1 (as salt: hydrochloride) [Example 38, 5-Methyl-9-(3-methylpyridin-4-yl)-spiro[benzo[f]pyrrolo[1,2-a][1,4]diazepine-6,1′-cyclopropan]-4(5H)-one] | > 250
CN1C(=O)c2cccn2-c2cc(-c3cnc(N)c(C(F)(F)F)c3)ccc2C12CC2 (as salt: hydrochloride) [Example 40, 5-Methyl-9-(6-amino-5-trifluoromethyl-pyridin-3-yl)-spiro[benzo[f]pyrrolo[1,2-a][1,4]diazepine-6,1′-cyclopropan]-4(5H)-one] | > 250
CN1C(=O)c2cccn2-c2cc(-c3ccc4nccn4c3)ccc2C12CC2 (as salt: hydrochloride) [Example 41, 5-Methyl-9-(imidazo[1,2-a]pyridin-6-yl)-spiro[benzo[f]pyrrolo[1,2-a][1,4]diazepine-6,1′-cyclopropan]-4(5H)-one] | > 250
CN1C(=O)c2cccn2-c2cc(-c3ccc(N4CCOCC4)nc3)ccc2C12CC2 (as salt: hydrochloride) [Example 42, 5-Methyl-9-(6-morpholin-4-yl-pyridin-3-yl)-spiro[benzo[f]pyrrolo[1,2-a][1,4]diazepine-6,1′-cyclopropan]-4(5H)-one] | 191 to 199
CN1C(=O)c2cccn2-c2cc(-c3ccc(N4CCCCC4)nc3)ccc2C12CC2 (as salt: hydrochloride) [Example 43, 5-Methyl-9-(3,4,5,6-tetrahydro-2H-[1,2′]bipyridinyl-5′-yl)-spiro[benzo[f]pyrrolo[1,2-a][1,4]diazepine-6,1′-cyclopropan]-4(5H)-one] | 188 to 193
CN1C(=O)c2cccn2-c2cc(C3=CCNCC3)ccc2C12CC2 (as salt: hydrochloride) [Example 46, 5-Methyl-9-(1,2,3,6-tetrahydro-pyridin-4-yl)-spiro[benzo[f]pyrrolo[1,2-a][1,4]diazepine-6,1′-cyclopropan]-4(5H)-one] | 208 to 215
CN1C(=O)c2cccn2-c2cc(C3=CCN(c4ccncn4)CC3)ccc2C12CC2 (as salt: hydrochloride) [Example 47, 5-Methyl-9-(1-pyrimidin-4-yl-1,2,3,6-tetrahydro-pyridin-4-yl)-spiro[benzo[f]pyrrolo[1,2-a][1,4]diazepine-6,1′-cyclopropan]-4(5H)-one] | 210 to 220
Cc1ccc(-c2ccc3c(c2)-n2cccc2C(=O)N(C)C32CC2)c(C)n1 (as salt: hydrochloride) [Example 56, 5-Methyl-9-(2,6-dimethylpyridin-3-yl)-spiro[benzo[f]pyrrolo[1,2-a][1,4]diazepine-6,1′-cyclopropan]-4(5H)-one] | > 250
Cc1nccnc1-c1ccc2c(c1)-n1cccc1C(=O)N(C)C21CC1 (as salt: hydrochloride) [Example 58, 5-Methyl-9-(3-methyl-pyrazin-2-yl)-5,6-spiro[benzo[f]pyrrolo[1,2-a][1,4]diazepine-6,1′-cyclopropan]-4(5H)-one] | 123 to 129
Cc1ncncc1-c1ccc2c(c1)-n1cccc1C(=O)N(C)C21CC1 (as salt: hydrochloride) [Example 59, 5-Methyl-9-(4-methyl-pyrimidin-5-yl)-spiro[benzo[f]pyrrolo[1,2-a][1,4]diazepine-6,1′-cyclopropan]-4(5H)-one] | 140 to 147
CCCc1ncccc1-c1ccc2c(c1)-n1cccc1C(=O)N(C)C21CC1 (as salt: hydrochloride) [Example 61, 5-Methyl-9-(2-propylpyridin-3-yl)-spiro[benzo[f]pyrrolo[1,2-a][1,4]diazepine-6,1′-cyclopropan]-4(5H)-one] | 150 to 157
CN1C(=O)c2cccn2-c2cc(-c3cccnc3C3CC3)ccc2C12CC2 (as salt: hydrochloride) [Example 62, 5-Methyl-9-(2-cyclopropylpyridin-3-yl)-spiro[benzo[f]pyrrolo[1,2-a][1,4]diazepine-6,1′-cyclopropan]-4(5H)-one] | 160 to 180
Cc1ccnc(C)c1-c1ccc2c(c1)-n1cccc1C(=O)N(C)C21CC1 (as salt: hydrochloride) [Example 65, 5-Methyl-9-(2,4-dimethylpyridin-3-yl)-spiro[benzo[f]pyrrolo[1,2-a][1,4]diazepine-6,1′-cyclopropan]-4(5H)-one] | 200 to 208
Cc1ncccc1-c1cc(F)c2c(c1)-n1cccc1C(=O)N(C)C21CC1 (as salt: hydrochloride) [Example 73, 7-Fluoro-5-methyl-9-(2-methyl-pyridin-3-yl)-spiro[benzo[f]pyrrolo[1,2-a][1,4]diazepine-6,1′-cyclopropan]-4(5H)-one] | 174 to 188

target: T1, human mGluR3 (hmGluR3) (Homo sapiens, UniProt Q14832); test: Human mGluR3 positive allosteric modulator evaluation using Ca++ functional assay; assay type: cell-based; settings: hmGluR3 transiently over-expressed in HEK-293 cells; stimulated by EC50 glutamate concentration; intracellular Ca2+ (Fluo4AM, FLIPR Tetra)
T1 construct: expressed in transfected cells; host or cells: HEK-293 cells, transient co-transfection by electroporation
T1 sequence (Q14832 23-879): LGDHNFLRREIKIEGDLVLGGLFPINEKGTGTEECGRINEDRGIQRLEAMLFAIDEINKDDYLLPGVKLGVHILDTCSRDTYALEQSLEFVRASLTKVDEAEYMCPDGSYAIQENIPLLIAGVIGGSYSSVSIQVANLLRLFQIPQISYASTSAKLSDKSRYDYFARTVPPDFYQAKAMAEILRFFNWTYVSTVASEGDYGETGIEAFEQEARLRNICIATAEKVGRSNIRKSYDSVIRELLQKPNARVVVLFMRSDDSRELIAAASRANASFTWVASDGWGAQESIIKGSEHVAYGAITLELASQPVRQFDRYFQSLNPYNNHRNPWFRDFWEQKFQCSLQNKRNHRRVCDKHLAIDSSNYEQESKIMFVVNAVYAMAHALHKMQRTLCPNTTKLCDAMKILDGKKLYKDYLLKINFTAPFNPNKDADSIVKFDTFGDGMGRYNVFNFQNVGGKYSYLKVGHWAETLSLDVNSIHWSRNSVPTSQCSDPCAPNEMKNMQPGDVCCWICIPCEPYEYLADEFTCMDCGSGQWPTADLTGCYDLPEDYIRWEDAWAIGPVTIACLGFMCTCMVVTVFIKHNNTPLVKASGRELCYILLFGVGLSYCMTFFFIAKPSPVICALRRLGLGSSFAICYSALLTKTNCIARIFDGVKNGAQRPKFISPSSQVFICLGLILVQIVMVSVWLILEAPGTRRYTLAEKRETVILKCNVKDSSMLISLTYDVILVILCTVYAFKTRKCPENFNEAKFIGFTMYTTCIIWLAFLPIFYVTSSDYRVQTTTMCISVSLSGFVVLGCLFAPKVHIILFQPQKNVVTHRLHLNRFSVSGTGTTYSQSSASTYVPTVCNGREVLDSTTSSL
Procedure, shortened: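 Calcium flux (Fluo4, ex 485/em 525 nm) recorded first 10 min with compound alone, then 3 min after an EC50 glutamate challenge, giving agonist and PAM EC50 from 20-concentration sigmoidal fits. Receptor was transiently co-transfected in HEK-293 with chimeric G protein and glutamate transporters.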

SMILES | EC50 [µM]
CCc1cc2n(c1)-c1cc(-c3cccnc3C)ccc1C1(CC1)N(C)C2=O [Example 197] | < 0.1
Cc1cc2n(c1)-c1cc(-c3ccc(C)nc3)ccc1C1(CC1)N(C)C2=O [Example 198] | < 0.1
CCc1ncccc1-c1ccc2c(c1)-n1cc(C)cc1C(=O)N(C)C21CC1 [Example 199] | < 0.1
Cc1ncccc1-c1ccc2c(c1)-n1cc(C(F)F)cc1C(=O)N(C)C21CC1 [Example 201] | < 0.1
CCc1ncccc1-c1ccc2c(c1)-n1cc(CO)cc1C(=O)N(C)C21CC1 [Example 203] | 0.1 to 1
COCc1cc2n(c1)-c1cc(-c3ccc(C)nc3)ccc1C1(CC1)N(C)C2=O [Example 205] | < 0.1
CCc1ncccc1-c1ccc2c(c1)-n1cc(COC)cc1C(=O)N(C)C21CC1 [Example 206] | < 0.1
Cc1ncccc1-c1ccc2c(c1)N1CCCC1C(=O)N(C)C21CC1 (stereo not drawn) [Example 209, 5-Methyl-9-(2-methylpyridin-3-yl)-1,2,3,3a-tetrahydro-spiro[benzo[f]pyrrolo[1,2-a][1,4]diazepine-6,1′-cyclopropan]-4(5H)-one] | > 1
CCC1c2ccc(Br)cc2-n2cccc2C(=O)N1C (stereo not drawn) [Example 214, 9-Bromo-5-methyl-6-ethyl-5,6-dihydro-benzo[f]pyrrolo[1,2-a][1,4]diazepin-4-one] | > 1
Cc1ncccc1-c1ccc2c(c1)-n1cncc1C(=O)N(C)C2 [Example 215, 5-Methyl-9-(2-methylpyridin-3-yl)-5,6-dihydro-4H-benzo[f]imidazo[1,5-a][1,4]diazepin-4-one] | > 1
Cc1ncccc1-c1ccc2c(c1)-n1ccnc1C(=O)N(C)C2 [Example 216, 5-Methyl-9-(2-methylpyridin-3-yl)-5,6-dihydro-4H-benzo[f]imidazo[1,2-a][1,4]diazepin-4-one] | > 1
Cc1ncccc1-c1ccc2c(c1)-n1nccc1C(=O)N(C)C2 [Example 217, 5-Methyl-9-(2-methylpyridin-3-yl)-5,6-dihydro-4H-benzo[f]pyrazolo[1,5-a][1,4]diazepin-4-one] | > 1
Cc1ncccc1-c1ccc2c(c1)-n1cccc1C(=O)N(C)C2C (stereo not drawn) [Example 218, 5,6-Dimethyl-9-(2-methyl-pyridin-3-yl)-5,6-dihydro-benzo[f]pyrrolo[1,2-a][1,4]diazepin-4-one] | 0.1 to 1
CC1c2ccc(-c3ccc(N(C)C)nc3)cc2-n2cccc2C(=O)N1C (stereo not drawn) [Example 219, 9-(6-Dimethylamino-pyridin-3-yl)-5,6-dimethyl-5,6-dihydro-benzo[f]pyrrolo[1,2-a][1,4]diazepin-4-one] | < 0.1
CCC1c2ccc(-c3cccnc3C)cc2-n2cccc2C(=O)N1C (stereo not drawn) [Example 220, 6-Ethyl-5-methyl-9-(2-methyl-pyridin-3-yl)-5,6-dihydro-benzo[f]pyrrolo[1,2-a][1,4]diazepin-4-one] | 0.1 to 1
CN1C(=O)c2cccn2-c2cc(Cl)ccc2C1(C)C [Example 222, 9-Chloro-5,6,6-trimethyl-5,6-dihydro-benzo[f]pyrrolo[1,2-a][1,4]diazepin-4-one] | > 1
Cc1ncccc1-c1ccc2c(c1)-n1cccc1C(=O)N(C)C2(C)C [Example 223, 5,6,6-Trimethyl-9-(2-methyl-pyridin-3-yl)-5,6-dihydro-benzo[f]pyrrolo[1,2-a][1,4]diazepin-4-one] | 0.1 to 1
